Measurements published in patent US9938262B2, “Benzamides” (Merck Patent GmbH, priority 2011, dated 2018).

Target: T1, FSHR (Homo sapiens, UniProt P23945)
T1 construct: expressed in transfected cells; host or cells: CHO (Cho-FSHR-LUC-1-1-43)
Experiment: EC50 of cyclic AMP production in CHO FSHR cells + EC20 FSH (Assay A)
Assay type: cell-based
Settings: CHO FSHR cells + EC20 FSH; Table 2; read-out: Assay A EC50 of cyclic AMP production
How it was run: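 cAMP HTRF ratio (665/620 nm) read after 1 h, 37 °C exposure of CHO-FSHR cells to compound in presence of EC20 FSH ([…]) and IBMX 200 μM. Responses given relative to FSH standard maximum; EC50 derived.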

T1 sequence (P23945 18-695): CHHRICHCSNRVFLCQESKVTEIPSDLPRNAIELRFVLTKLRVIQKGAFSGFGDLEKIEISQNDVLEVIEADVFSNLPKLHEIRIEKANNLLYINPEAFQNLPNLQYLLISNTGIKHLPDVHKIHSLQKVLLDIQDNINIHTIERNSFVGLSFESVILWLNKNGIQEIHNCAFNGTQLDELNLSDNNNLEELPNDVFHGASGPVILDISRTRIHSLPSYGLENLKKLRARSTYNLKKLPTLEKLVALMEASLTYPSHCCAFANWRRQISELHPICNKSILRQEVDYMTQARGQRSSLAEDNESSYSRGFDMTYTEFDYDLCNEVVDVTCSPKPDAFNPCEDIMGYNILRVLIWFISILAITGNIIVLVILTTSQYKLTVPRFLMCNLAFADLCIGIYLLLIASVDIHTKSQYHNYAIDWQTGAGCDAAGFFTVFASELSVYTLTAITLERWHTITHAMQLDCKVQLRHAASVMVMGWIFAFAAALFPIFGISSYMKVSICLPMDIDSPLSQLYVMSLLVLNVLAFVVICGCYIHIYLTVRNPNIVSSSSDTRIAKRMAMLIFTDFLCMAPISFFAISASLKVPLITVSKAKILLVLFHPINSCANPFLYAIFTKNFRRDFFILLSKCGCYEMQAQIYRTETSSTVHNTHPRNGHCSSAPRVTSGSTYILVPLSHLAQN
T1 sequence (P01215 25-116 partner): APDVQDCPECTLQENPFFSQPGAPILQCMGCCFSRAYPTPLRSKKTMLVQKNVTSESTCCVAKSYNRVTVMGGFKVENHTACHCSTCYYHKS
T1 sequence (P01225 19-129 partner): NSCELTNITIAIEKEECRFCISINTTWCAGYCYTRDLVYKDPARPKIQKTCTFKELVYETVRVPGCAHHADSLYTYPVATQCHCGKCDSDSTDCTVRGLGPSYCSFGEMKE

Row | EC50 | Structure (SMILES)
1 | 100 to 1000 nM | Cc1ccccc1N1CCN(c2ccc(C(=O)NCC(C)(C)CN3CCCC3=O)cc2NC(=O)c2coc(C3CC3)n2)CC1 [Compound 356]
2 | 100 to 1000 nM | Cc1ccccc1N1CCN(c2ccc(C(=O)NCCCN3C(=O)OC[C@H]3CO)cc2NC(=O)c2coc(C3CC3)n2)CC1 [Compound 357]
3 | 100 to 1000 nM | Cc1ccccc1N1CCN(c2ccc(C(=O)NCCCN3C(=O)OCC3(C)C)cc2NC(=O)c2coc(C3CC3)n2)CC1 [Compound 358]
4 | 100 to 1000 nM | Cc1ccccc1N1CCN(c2ccc(C(=O)NCC3(C(N)=O)CC3)cc2NC(=O)c2coc(C3CC3)n2)CC1 [Compound 359]
5 | < 100 nM | CC(=O)N(C)CCCNC(=O)c1ccc(N2CCN(c3ccccc3C)CC2)c(NC(=O)c2coc(C3CC3)n2)c1 [Compound 360]
6 | 1000 to 10000 nM | Cc1ccccc1N1CCN(c2ccc(C(=O)NCCCC(=O)CN(c3ccccc3)c3ccccc3)cc2NC(=O)c2coc(C3CC3)n2)CC1 [Compound 361]
7 | 100 to 1000 nM | Cc1ccccc1N1CCN(c2ccc(C(=O)NCCCN3CCC(F)(F)C3)cc2NC(=O)c2coc(C3CC3)n2)CC1 [Compound 362]
8 | 100 to 1000 nM | Cc1ccccc1N1CCN(c2ccc(C(=O)NCCCC(=O)NC3CCC3)cc2NC(=O)c2coc(C3CC3)n2)CC1 [Compound 363]
9 | 100 to 1000 nM | Cc1ccccc1N1CCN(c2ccc(C(=O)NC(C)CCN3CCCC3=O)cc2NC(=O)c2coc(C3CC3)n2)CC1 (stereo not shown) [Compound 364]
10 | 100 to 1000 nM | Cc1ccccc1N1CCN(c2ccc(C(=O)NCCCN3CC(C)OC3=O)cc2NC(=O)c2coc(C3CC3)n2)CC1 (stereo not shown) [Compound 366]
11 | 100 to 1000 nM | CCNC(=O)N(C)CCCNC(=O)c1ccc(N2CCN(c3ccccc3C)CC2)c(NC(=O)c2coc(C3CC3)n2)c1 [Compound 367]
12 | 100 to 1000 nM | CC(=O)NCCCNC(=O)c1ccc(N2CCN(c3ccccc3C)CC2)c(NC(=O)c2coc(C3CC3)n2)c1 [Compound 368]
13 | 1000 to 10000 nM | Cc1ccc(C(=O)Nc2cc(C(=O)NCCCN3C(=O)OCC3(C)C)ccc2N2CCN(c3ccccc3C)CC2)o1 [Compound 369]
14 | 1000 to 10000 nM | Cc1ccc(C(=O)Nc2cc(C(=O)NCCCN3CC(C)OC3=O)ccc2N2CCN(c3ccccc3C)CC2)o1 (stereo not shown) [Compound 370]
15 | 100 to 1000 nM | Cc1ccccc1N1CCN(c2ccc(C(=O)NCCNC3CS(=O)(=O)CC3O)cc2NC(=O)c2ccco2)CC1 (stereo not shown) [Compound 371]
16 | 100 to 1000 nM | Cc1ccccc1N1CCN(c2ccc(C(=O)NCCCc3ccccc3O)cc2NC(=O)c2ccco2)CC1 [Compound 372]
17 | 1000 to 10000 nM | Cc1ccccc1N1CCN(c2ccc(C(=O)NCCCc3ccccc3Cl)cc2NC(=O)c2ccco2)CC1 [Compound 373]
18 | 100 to 1000 nM | Cc1ccccc1N1CCN(c2ccc(C(=O)NCCCn3nccc3C3CC3)cc2NC(=O)c2ccco2)CC1 [Compound 374]
19 | 100 to 1000 nM | Cc1ccccc1N1CCN(c2ccc(C(=O)NCCCC3CCCC3)cc2NC(=O)c2ccco2)CC1 [Compound 375]
20 | 100 to 1000 nM | Cc1ccccc1N1CCN(c2ccc(C(=O)NCC(=O)NC3CCS(=O)(=O)C3)cc2NC(=O)c2ccco2)CC1 (stereo not shown) [Compound 376]
21 | 100 to 1000 nM | Cc1ccccc1N1CCN(c2ccc(C(=O)NCCCC3CCS(=O)(=O)C3)cc2NC(=O)c2ccco2)CC1 (stereo not shown) [Compound 377]
22 | 100 to 1000 nM | Cc1ccccc1N1CCN(c2ccc(C(=O)NCCCN3C(=O)C(=O)N(C)C3=O)cc2NC(=O)c2ccco2)CC1 [Compound 379]
23 | 100 to 1000 nM | Cc1ccccc1N1CCN(c2ccc(C(=O)NCC3C[C@@H]4CC[C@H]3C4)cc2NC(=O)c2ccco2)CC1 (stereo partly shown) [Compound 380]
24 | 100 to 1000 nM | Cc1ccccc1N1CCN(c2ccc(C(=O)NCc3cccc(-c4nccs4)c3)cc2NC(=O)c2coc(C3CC3)n2)CC1 [Compound 382]
25 | 100 to 1000 nM | Cc1ccccc1N1CCN(c2ccc(C(=O)NCCCN3CCCC3=O)cc2NC(=O)c2cnc(C3CC3)s2)CC1 [Compound 383]

Row | EC50 | Structure (SMILES)
26 | 100 to 1000 nM | Cc1ccccc1N1CCN(c2ccc(C(=O)NCCCN3C(=O)CCC3=O)cc2NC(=O)c2ccc(Br)o2)CC1 [Compound 384]
27 | 100 to 1000 nM | Cc1ccccc1N1CCN(c2ccc(C(=O)NCCCN3CCOC3=O)cc2NC(=O)c2ccc(Br)o2)CC1 [Compound 385]
28 | 100 to 1000 nM | Cc1ccccc1N1CCN(c2ccc(C(=O)NCCCN3CCCC3=O)cc2NC(=O)c2cnc(C3CC3)o2)CC1 [Compound 386]
29 | 100 to 1000 nM | Cc1ccccc1N1CCN(c2ccc(C(=O)NCCNC3CCS(=O)(=O)C3)cc2NC(=O)c2ccco2)CC1 (stereo not shown) [Compound 387]
30 | < 100 nM | Cc1ccccc1N1CCN(c2ccc(C(=O)NCCCc3ccc(O)cc3)cc2NC(=O)c2ccco2)CC1 [Compound 388]
31 | > 10000 nM | Cc1ccccc1N1CCN(c2ccc(C(=O)NCCNC3CCCC3)cc2NC(=O)c2ccco2)CC1 [Compound 389]
32 | 100 to 1000 nM | Cc1ccccc1N1CCN(c2ccc(C(=O)NCCCc3nc(C)c(C)s3)cc2NC(=O)c2coc(C3CC3)n2)CC1 [Compound 390]
33 | 100 to 1000 nM | Cc1ccccc1N1CCN(c2ccc(C(=O)NCCCc3scnc3C)cc2NC(=O)c2coc(C3CC3)n2)CC1 [Compound 391]
34 | 100 to 1000 nM | Cc1ccccc1N1CCN(c2ccc(C(=O)NCCCc3nccs3)cc2NC(=O)c2coc(C3CC3)n2)CC1 [Compound 393]
35 | 100 to 1000 nM | Cc1csc(CCCNC(=O)c2ccc(N3CCN(c4ccccc4C)CC3)c(NC(=O)c3coc(C4CC4)n3)c2)n1 [Compound 395]
36 | 100 to 1000 nM | Cc1ccccc1N1CCN(c2ccc(C(=O)NCCCn3cncn3)cc2NC(=O)c2coc(C3CC3)n2)CC1 [Compound 396]
37 | 100 to 1000 nM | Cc1ccccc1N1CCN(c2ccc(C(=O)NCCc3ccccc3C#N)cc2NC(=O)c2coc(C3CC3)n2)CC1 [Compound 397]
38 | 100 to 1000 nM | Cc1ccc(C(=O)Nc2cc(C(=O)NC(C)CCN3CCCC3=O)ccc2N2CCN(c3ccccc3C)CC2)o1 (stereo not shown) [Compound 398]
39 | 100 to 1000 nM | O=C(NCCCN1CCCC1=O)c1ccc(N2CC=C(c3ccccc3)CC2)c(NC(=O)c2coc(C3CC3)n2)c1 [Compound 399]
40 | > 10000 nM | CC(=O)NC1(c2ccccc2)CCN(c2ccc(C(=O)NCCCN3CCCC3=O)cc2NC(=O)c2coc(C3CC3)n2)CC1 [Compound 400]
41 | > 10000 nM | NC1(c2ccccc2)CCN(c2ccc(C(=O)NCCCN3CCCC3=O)cc2NC(=O)c2coc(C3CC3)n2)CC1 [Compound 401]
42 | 100 to 1000 nM | O=C(NCCCN1CCCC1=O)c1ccc(N2CCN(c3ccccc3F)CC2)c(NC(=O)c2coc(C3CC3)n2)c1 [Compound 402]
43 | 1000 to 10000 nM | O=C(NCCCN1CCCC1=O)c1ccc(N2CCN(c3ccccc3OC(F)(F)F)CC2)c(NC(=O)c2coc(C3CC3)n2)c1 [Compound 403]
44 | 1000 to 10000 nM | Cc1ccc(C(=O)Nc2cc(C(=O)NCCCN3CCCC3=O)ccc2N2CCN(c3ccccc3OC(F)(F)F)CC2)o1 [Compound 404]
45 | 100 to 1000 nM | Cc1ccccc1N(C)C1CCN(c2ccc(C(=O)NCCCN3CCCC3=O)cc2NC(=O)c2coc(C3CC3)n2)CC1 [Compound 405]
46 | 100 to 1000 nM | Cc1ccccc1N1CCN(c2ccc(C(=O)NCCCN3CCOCC3)cc2NC(=O)c2coc(C3CC3)n2)CC1 [Compound 406]
47 | > 10000 nM | CN(c1ccccc1)C1CCN(c2ccc(C(=O)NCCCN3CCCC3=O)cc2NC(=O)c2coc(C3CC3)n2)CC1 [Compound 407]
48 | 100 to 1000 nM | Cc1ccccc1N1CCN(c2ccc(C(=O)NCCc3cccc(CN(C)C)c3)cc2NC(=O)c2coc(C3CC3)n2)CC1 [Compound 408]
49 | > 10000 nM | Cc1ccccc1N1CCN(c2ccc(C(=O)Nc3ccc(C(C)(C)C#N)cc3)cc2NC(=O)c2coc(C3CC3)n2)CC1 [Compound 409]
